Where “and” joins values, the source holds several entries; their conditions need not be identical. Equal values may be shown once.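 In this assay, cells in 96-well plates receive the compound at five concentrations for 48 hours. Endpoints are linearly interpolated between the surrounding concentrations. GI50: concentration for 50% inhibition of growth. TGI denotes the concentration required for complete inhibition of growth.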
Legend:
Assay in all cases: inhibition of tumour cell growth, NCI panel, 48 h
CCRF-CEM leukemia = test system: CCRF-CEM leukemia
HL-60(TB) leukemia = test system: HL-60(TB) leukemia
KM12 colon = test system: KM12 colon
MDA-MB-231 breast = test system: MDA-MB-231 breast
RPMI-8226 leukemia = test system: RPMI-8226 leukemia
SK-MEL-5 melanoma = test system: SK-MEL-5 melanoma
SR leukemia = test system: SR leukemia
SW-620 colon = test system: SW-620 colon

Compound | GI50 (CCRF-CEM leukemia) [µM] | TGI (CCRF-CEM leukemia) [µM] | GI50 (HL-60(TB) leukemia) [µM] | TGI (HL-60(TB) leukemia) [µM] | GI50 (KM12 colon) | TGI (KM12 colon) | GI50 (MDA-MB-231 breast) [µM] | TGI (MDA-MB-231 breast) [µM] | GI50 (RPMI-8226 leukemia) [µM] | TGI (RPMI-8226 leukemia) [µM] | GI50 (SK-MEL-5 melanoma) [µM] | TGI (SK-MEL-5 melanoma) [µM] | GI50 (SR leukemia) [µM] | TGI (SR leukemia) [µM] | GI50 (SW-620 colon) [µM] | TGI (SW-620 colon) [µM]
Cc1cc(Nc2ncc(Cl)c(Nc3ccccc3S(=O)(=O)C(C)C)n2)c(OC(C)C)cc1C1CCNCC1 | 1.87 | 4.18 | 0.253 | 1.64 | 1.49 µM and 0.911 µM | 3.11 µM and 2.1 µM | 1.37 | 2.71 | 0.753 | 2.85 | 1.4 | 2.73 | 0.0444 | 1.58 | 0.776 | 2.61
CCCCCCCCO/N=C\c1c2c(O)c3c(O)c(C)c4c(c3c1O)C(=O)C(C)(O/C=C\C(OC)C(C)C(OC(C)=O)C(C)C(O)C(C)C(O)C(C)/C=C\C=C(\C)C(=O)N2)O4 (configuration not stated) | 1.95 | 9.82 |  |  | 1.67 µM | 6.36 µM | 1.63 | 5.91 | 2.21 | 8.43 | 0.948 | 2.09 |  |  | 1.77 | 6.09
O=C(Nc1nc(-c2ccc(Cl)cc2)cs1)c1ccc(O)c(O)c1 | 2.22 | 9.35 | 2.85 | 9.53 | 5.36 µM | 21.2 µM | 4.39 | 20.4 | 2.14 | 10.7 | 2.98 | 12 | 2.09 | 9.26 | 4.74 | 20.1
C/C=C/C/C=C/CCC(=O)C1OC1C(N)=O (configuration not stated) |  | 98.3 |  |  |  | 29.5 µM |  | 31.1 |  |  |  | 28.3 |  | 50.5 |  | 42.3
CC(=O)NC(Cc1c[nH]c2ccccc12)C(=O)O (configuration not stated) |  | > 100 |  | > 100 |  | > 100 µM |  | > 100 |  | > 100 |  | > 100 |  | > 100 |  | > 100
CC1=C([Se]CC(OC(=O)[C@@H](CSSC(C)(C)C)NC(=O)C(C)(C)C)C(=O)NCCCCCC(=O)OCc2ccccc2)C(=O)c2ccccc2C1=O (some centres not stated) |  |  | 2.51 | 5.98 | 1.8 µM | 3.5 µM | 1.92 | 4.23 | 2.33 | 6.74 | 1.89 | 3.34 | 3.84 | 18.5 | 2.31 | 5.2
OCC1OC(O)C(N=Cc2ccc3c(c2)OCO3)C(O)C1O (configuration not stated) |  | > 40.1 |  | > 100 |  | > 100 µM |  | > 100 |  | > 100 |  | > 100 |  | > 100 |  | > 100
N#Cc1c(SCc2ccccc2)nc2[nH]c(=S)[nH]c(=S)c2c1-c1ccco1 |  |  | 40.6 | > 100 | 60.3 µM | > 100 µM | 39.9 | 71.3 | 2.22 | 13.9 | 23.9 | > 100 | 19.1 | > 100 | 33.9 | > 100
CCOC(=O)c1ccc2[nH]c(Cc3[nH]c4ccc(C(=O)OCC)cc4c3C)c(C)c2c1 | 1.58 | 28.7 | 3.81 | 46.8 | 1.51 µM | 20.7 µM | 2.4 | 12.3 | 2.66 | 35.6 | 1.22 | 14.5 | 0.425 | 15.1 | 1.41 | 15.6
O=S(=O)(NCCNc1cc(-c2cn(-c3ccccc3)nc2-c2cccc(O)c2)ccn1)c1ccc(F)cc1 | 3.28 | 17.3 | 2.43 | 6.22 | 2.34 µM | 8.26 µM | 1.88 | 4.7 | 2.23 | 6.12 | 1.73 | 3.22 | 1.6 | 4.88 | 3.52 | 13.6
COc1cc2c(cc1OCCCCCN1CCN(c3cc(=O)oc4c(C)c(OC)ccc34)CC1)N=C[C@@H]1CCCN1C2=O | < 0.01 | 0.106 | < 0.01 | 1.2 | < 0.0169 µM | 0.0965 µM |  |  | < 0.01 | < 0.0118 |  |  |  |  | < 0.0108 | 4.26
COc1ccc2c(c1)/C(=C/c1c(-c3ccc(C)cc3)nc3sc(C)cn13)C(=O)N2 | 6.84 | 80.3 | 4.85 | 30.8 | 23.1 µM | > 100 µM | 13.3 | > 100 |  |  | 11.9 | 30.5 | 1.59 | 28.7 | 16.8 | > 100
O=C(c1cccs1)c1c(C(F)(F)F)n([O-])c2cc(C(F)(F)F)ccc2[n+]1=O | 0.12 | 0.361 | < 0.0236 | 0.135 | 0.183 µM | 0.38 µM | 0.177 | 0.345 | 0.211 | 0.59 | 0.314 | 0.723 | 0.0176 | 0.0833 | 0.14 | 0.304
Nc1c(C(=O)Nc2cccc3ccccc23)sc2nc3c(cc12)CCCCC3 | 0.692 | > 50 | 0.202 | 2.87 | 0.76 µM | > 50 µM | 1.27 | > 50 | 1.16 | > 50 | 0.347 | 11.5 | 0.214 | > 50 | 0.538 | > 50
Nc1ccn(C2OC(COP(=O)(O)O)C(O)C2O)c(=O)n1 (configuration not stated) |  | 0.0742 |  | 6.48 |  | > 100 µM |  | > 100 |  | > 100 |  | > 100 |  | > 44.7 |  | > 100
O=C(CCc1ccc(O)c(O)c1)c1ccc(O)c(O)c1O |  | 47.3 |  | 32.6 |  | 36.2 µM |  | 55.5 |  |  |  | 36.3 |  | > 100 |  | > 100

— PubChem BioAssay (NCI)
